Test results: PubChem BioAssay (NCI)
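Values below derive from 48-hour exposures of cells grown in 96-well plates, with endpoints linearly interpolated between the two concentrations bracketing the appropriate inhibition level. The concentration for 50% growth inhibition is given as GI50. The concentration for full growth arrest is given as TGI.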

Tests used:
Test in all cases: NCI anticancer screen, dose series, 48 h
[1] = system: LOX IMVI melanoma
[2] = system: MDA-MB-435
[3] = system: TK-10 renal
[4] = system: U251 CNS
[5] = system: BT-549 breast
[6] = system: UACC-62 melanoma
[7] = system: NCI-H460 lung
[8] = system: COLO 205 colon
[9] = system: MCF7 breast
[10] = system: SF-268 CNS

`CC(C)(C)c1cc(C[P+](c2ccccc2)(c2ccccc2)c2ccccc2)cc(C(C)(C)C)c1O` showed a GI50 [1] of 0.457 µM, a TGI [1] of 1.89 µM and a GI50 [2] of 0.289 µM. For the same compound, the TGI [2] was 1.2 µM, the GI50 [3] was 0.486 µM and the TGI [3] was 3.25 µM. For the same compound, the GI50 [4] was 0.268 µM, the TGI [4] was 3.76 µM and the GI50 [5] was 0.33 µM. The TGI [5] was 0.898 µM, the GI50 [6] was 0.365 µM and the TGI [6] was 1.66 µM. The GI50 [7] was 0.413 µM, the TGI [7] was 2.59 µM and the GI50 [8] was 0.199 µM. For the same compound, the TGI [8] was 0.521 µM, the GI50 [9] was 0.27 µM and the TGI [9] was 4.04 µM. It also gave a GI50 [10] of 0.429 µM and a TGI [10] of 15 µM.

`COc1ccc(C2c3ccc4ccccc4c3Oc3ncn(CCCn4ccnc4)c(=N)c32)cc1OC` (stereo not given) gave a GI50 [1] of 1.88 µM, a TGI [1] of 3.7 µM and a GI50 [2] of 1.99 µM. For the same compound, the TGI [2] was 4.06 µM, the GI50 [3] was 4 µM and the TGI [3] was 14.4 µM. The GI50 [4] was 2.36 µM, the TGI [4] was 7.69 µM and the GI50 [5] was 3.41 µM. It also gave a TGI [5] of 13.5 µM, a GI50 [6] of 1.9 µM and a TGI [6] of 3.74 µM. For the same compound, the GI50 [7] was 3.65 µM, the TGI [7] was 13.2 µM and the GI50 [8] was 2.04 µM. For the same compound, the TGI [8] was 4.51 µM, the GI50 [9] was 3.11 µM and the TGI [9] was 12.3 µM. For the same compound, the GI50 [10] was 3.52 µM and the TGI [10] was 13.8 µM.

For `COc1ccc2c(n1)Sc1nc3ccccc3nc1N2`, the TGI [1] was > 100 µM, the TGI [2] was > 100 µM and the TGI [3] was 80.1 µM. For the same compound, the TGI [4] was 52.7 µM, the TGI [5] was > 100 µM and the TGI [6] was 43.4 µM. The TGI [7] was > 100 µM, the TGI [8] was > 100 µM and the TGI [9] was > 100 µM. For the same compound, the TGI [10] was > 100 µM.

In the case of `COC(=O)[C@H](Cc1cn(C)cn1)NC(=O)[C@H](CC(C)C)NC(=O)Nc1cc(C(F)(F)F)cc(C(F)(F)F)c1`, the GI50 [1] was 4.89 µM, the TGI [1] was > 10 µM and the GI50 [2] was > 10 µM. The TGI [2] was > 10 µM, the GI50 [3] was > 10 µM and the TGI [3] was > 10 µM. For the same compound, the GI50 [4] was > 10 µM, the TGI [4] was > 10 µM and the GI50 [5] was > 10 µM. For the same compound, the TGI [5] was > 10 µM, the GI50 [6] was > 10 µM and the TGI [6] was > 10 µM. The GI50 [7] was > 10 µM, the TGI [7] was > 10 µM and the GI50 [8] was > 10 µM. For the same compound, the TGI [8] was > 10 µM, the GI50 [9] was 2.52 µM and the TGI [9] was 7.76 µM. For the same compound, the GI50 [10] was 3.16 µM and the TGI [10] was > 10 µM.

`CCCCCCCCCCCCCCCCn1cc[n+](C)c1` gave a GI50 [1] of 0.412 µM, a TGI [1] of 1.64 µM and a GI50 [2] of 0.358 µM. The TGI [2] was 1.49 µM, the GI50 [3] was 0.254 µM and the TGI [3] was 0.929 µM. It also gave a GI50 [4] of 0.356 µM, a TGI [4] of 1.53 µM and a GI50 [5] of 0.444 µM. For the same compound, the TGI [5] was 1.61 µM, the GI50 [6] was 0.538 µM and the TGI [6] was 1.88 µM. It also gave a GI50 [7] of 0.486 µM, a TGI [7] of 1.83 µM and a GI50 [8] of 0.27 µM. For the same compound, the GI50 [9] was 0.367 µM, the TGI [9] was 1.52 µM and the GI50 [10] was 0.837 µM. The TGI [10] was 2.12 µM.

With `CCCCCCOC(=O)CC1=C(C)/C(=C/c2[nH]c(-c3ccc[nH]3)cc2OC)N=C1C` the GI50 [1] was 0.0218 µM, the TGI [1] was 0.0565 µM and the GI50 [2] was 0.0463 µM. For the same compound, the TGI [2] was 1.12 µM, the GI50 [3] was 0.108 µM and the TGI [3] was 1.38 µM. It also gave a GI50 [4] of 0.0675 µM, a TGI [4] of 1.13 µM and a GI50 [5] of 0.0865 µM. It also gave a TGI [5] of 1.59 µM, a GI50 [7] of 0.355 µM and a TGI [7] of 1.39 µM. The GI50 [8] was 0.087 µM, the TGI [8] was 1.09 µM and the GI50 [9] was 0.0961 µM. For the same compound, the TGI [9] was 1.38 µM, the GI50 [10] was 0.0818 µM and the TGI [10] was 2 µM.

Work on `Cc1cccc2c(=O)c3c(sc12)c(NCCCNCCO)nc1ccccc13` yielded a GI50 [1] of 1.38 µM, a TGI [1] of 2.76 µM and a GI50 [2] of 1.74 µM. It also gave a TGI [2] of 3.18 µM, a GI50 [4] of 1.5 µM and a TGI [4] of 2.96 µM. The GI50 [5] was 1.85 µM, the TGI [5] was 4.27 µM and the GI50 [6] was 1.67 µM. It also gave a TGI [6] of 3.17 µM, a GI50 [7] of 1.15 µM and a TGI [7] of 2.55 µM. The GI50 [8] was 1.61 µM, the TGI [8] was 3.24 µM and the GI50 [9] was 1.33 µM. It also gave a TGI [9] of 2.87 µM, a GI50 [10] of 1.4 µM and a TGI [10] of 2.97 µM.

Work on `CCCCCN(CCCCC)CCC[C@@H](C)[C@H]1CC[C@H]2[C@@H]3[C@H](OCCCN)C[C@@H]4C[C@H](OCCCN)CC[C@]4(C)[C@H]3C[C@H](OCCCN)[C@]12C` yielded a GI50 [1] of 2.16 µM, a TGI [1] of 10.2 µM and a GI50 [2] of 1.98 µM. It also gave a TGI [2] of 4.93 µM, a GI50 [4] of 4.53 µM and a TGI [4] of 18.4 µM. For the same compound, the GI50 [5] was 3.27 µM, the TGI [5] was 8.37 µM and the GI50 [6] was 1.56 µM. It also gave a TGI [6] of 6.41 µM, a GI50 [7] of 2.79 µM and a TGI [7] of 17.3 µM. The GI50 [8] was 5.89 µM, the TGI [8] was 22.8 µM and the GI50 [9] was 14.5 µM. It also gave a TGI [9] of 34.7 µM, a GI50 [10] of 13.6 µM and a TGI [10] of 31.5 µM.

For `CCCCCSc1ccc2nc(NC(=O)OCC)sc2c1`, the GI50 [1] was 0.455 µM, the TGI [1] was > 100 µM and the GI50 [2] was 0.194 µM. It also gave a TGI [2] of 0.763 µM, a GI50 [3] of 2.25 µM and a TGI [3] of 52.8 µM. It also gave a GI50 [4] of 0.41 µM, a TGI [4] of 11 µM and a GI50 [5] of 0.487 µM. The TGI [5] was > 100 µM, the GI50 [7] was 0.523 µM and the TGI [7] was > 100 µM. The GI50 [8] was 0.53 µM, the TGI [8] was > 100 µM and the GI50 [9] was 0.3 µM. For the same compound, the TGI [9] was > 100 µM, the GI50 [10] was 0.866 µM and the TGI [10] was > 100 µM.

For `COc1ccc(O)c(/C=N\Nc2ccccc2)c1`, the TGI [1] was 13 µM, the TGI [2] was 43.8 µM and the TGI [4] was > 100 µM. The TGI [5] was > 100 µM, the TGI [6] was 12.3 µM and the TGI [7] was > 100 µM. The TGI [8] was 26.2 µM, the TGI [9] was > 100 µM and the TGI [10] was > 100 µM.
